Results on 5 molecules are retold here after patent publication US7550158B2, “Controlled release by extrusion of solid amorphous dispersions of drugs” (Bend Research, Inc., priority 1999, dated 2009).

≈ marks a conversion by molar mass, not a printed value.

What all share (format): physicochemical
The nature of data set [1]: Dissolution in MFD solution (Example 6). To be noted: 50 ml MFD solution, Drug 1. From the text:
1. The data for the tri-layer tablet is the average of the values for the two tablets tested.

Data set [2] is described as follows: Water solubility of the drug.
The nature of data set [3]: Dissolution in phosphate buffered saline (PBS) solution (Example 3). To be noted: 35 ml PBS solution, Drug 2. As to the method: For a comparative dissolution study, Control E, consisting of 35 mg of crystalline Drug 2 was prepared. The dissolution of drug was studied by placing two of the trilayer tablets and Control E each in 35 ml of a phosphate buffered saline (PBS) solution composed of 6 mm KH2PO4, 5 mM NaOH, 60 mM KCl and 30 mM NaCl. The data for the trilayer tablet is the average of the values for the two tablets tested.

The nature of data set [4]: Dissolution in phosphate-buffered solution pH 7.2 simulating intestinal environment (Example 7). To be noted: 50 ml phosphate-buffered solution pH 7.2, Drug 2. As to the method:
For a comparative dissolution study, Control G, consisting of 100 mg of crystalline Drug 2 was prepared. The dissolution of drug was studied by placing one each of the bi-layer tablet and Control G preparation containing an equal amount of Drug 2 in 50 ml of the phosphate-buffered solution of Example 3 (pH 7.2, osmotic pressure 5.3 atm) to simulate an intestinal environment of use.

A short description of data set [5]: Dissolution in MFD solution (Example 8, sertraline). To be noted: 40 ml MFD solution. As to the method: For a comparative dissolution study, Control H, consisting of 111.4 mg of the crystalline drug, was used. The dissolution of drug was studied by placing the bilayer tablet and Control H each in 40 ml of MFD solution.

`CON(C)C(=O)C(O)[C@H](Cc1ccccc1)NC(=O)c1cc2cc(Cl)ccc2[nH]1` (stereo in doubt) [Control F, [R-(R*,S*)]-5-chloro-N-[2-hydroxy-3-[methoxymethylamino)-3-1-(phenylmethyl)propyl]propyl]-1H-indole-2-carboxamide]: the “MDC (maximum drug concentration)” value in data set [1] came out at 16 µg/mL. In addition, the “[Drug] drug concentration” value in data set [1] (time 0 hr) came to 0 µg/mL; in data set [1] (time 2 hr) it was 13 µg/mL; in data set [1] (time 4 hr) it was 16 µg/mL; in data set [1] (time 8 hr) it was 13 µg/mL; in data set [1] (time 12 hr), 15 µg/mL; in data set [1] (time 20 hr) it was 12 µg/mL. In data set [1] (time 24 hr), the “[Drug] drug concentration” value amounted to 11 µg/mL.
`CON(C)C(=O)C(O)[C@H](Cc1ccccc1)NC(=O)c1cc2cc(Cl)ccc2[nH]1` (stereo in doubt) [Drug 1, [R-(R*,S*)]-5-chloro-N-[2-hydroxy-3-[methoxymethylamino)-3-1-(phenylmethyl)propyl]propyl]-1H-indole-2-carboxamide] showed a water solubility in data set [2] of 1 µg/mL (≈ 2.4 µM).
Turning to `O=C(N[C@@H](Cc1ccccc1)[C@@H](O)C(=O)N1C[C@@H](O)[C@@H](O)C1)c1cc2cc(Cl)ccc2[nH]1` [Control E], the “MDC (maximum drug concentration)” value in data set [3] is 171 µg/mL. Besides, the “[Drug] drug concentration” value was found to be 99 µg/mL in data set [3] (time 0.3 hrs); 148 µg/mL in data set [3] (time 1.5 hrs); 165 µg/mL in data set [3] (time 2.0 hrs); 137 µg/mL in data set [3] (time 3.0 hrs); 142 µg/mL in data set [3] (time 4.0 hrs); 157 µg/mL in data set [3] (time 12.0 hrs). For the same molecule, in data set [3] (time 20.0 hrs), the “[Drug] drug concentration” value stood at 171 µg/mL.
`O=C(N[C@@H](Cc1ccccc1)[C@@H](O)C(=O)N1C[C@@H](O)[C@@H](O)C1)c1cc2cc(Cl)ccc2[nH]1` [Control G]: in data set [4], the “MDC (maximum drug concentration)” value is 77 µg/mL. Also, the “[Drug] drug concentration” value was 0 µg/mL in data set [4] (time 0 hr); 59 µg/mL in data set [4] (time 1 hr); 72 µg/mL in data set [4] (time 2 hr); 72 µg/mL in data set [4] (time 4 hr); 77 µg/mL in data set [4] (time 8 hr); 71 µg/mL in data set [4] (time 12 hr). Besides, the “[Drug] drug concentration” value in data set [4] (time 18 hr) was 71 µg/mL; in data set [4] (time 24 hr) it was 75 µg/mL.
Turning to `CN[C@H]1CC[C@@H](c2ccc(Cl)c(Cl)c2)c2ccccc21` [Control H, sertraline], the “MDC (maximum drug concentration)” value in data set [5] amounted to 401 µg/mL. This molecule also returned an AUC in data set [5] (time 0 hr) of 0 µg·min/mL. The “[Drug] drug concentration” value in data set [5] (time 0 hr) was found to be 0 µg/mL; in data set [5] (time 0.2 hr), 278 µg/mL; in data set [5] (time 0.3 hr), 401 µg/mL; in data set [5] (time 0.7 hr), 341 µg/mL; in data set [5] (time 1.5 hr), 217 µg/mL; in data set [5] (time 2 hr), 188 µg/mL. Besides, the “[Drug] drug concentration” value was 168 µg/mL in data set [5] (time 3 hr); 152 µg/mL in data set [5] (time 4 hr); 160 µg/mL in data set [5] (time 6 hr); 137 µg/mL in data set [5] (time 10 hr); 135 µg/mL in data set [5] (time 14 hr); 191 µg/mL in data set [5] (time 24 hr).

By AUC is commonly meant the area under the concentration-time curve, a measure of exposure. Low values mean low exposure, high ones high exposure.
